The source made the active and inactive calls. The rule behind the calls is not given here.
Experiments:
[1] = Half life in pH 7.4 PBS buffer by LC-MS analysis; format: physicochemical
WM 266-4 [2] = assay: Induction of apoptosis in human WM266.4 cells assessed as early apoptotic cells at 25 uM after 2 hrs by Annexin V-FITC/propidium iodide staining based flow cytometry (reference value: 2.64%); format: functional
Mus musculus [3] = assay: Toxicity in athymic Foxn1 nu mouse assessed as abnormal physiological changes at 10 mg/kg, ip administered once daily for 3 days followed by resting period of 4 days repeated for 4 weeks; format: organism-based; conditions: in vivo
WM 266-4 [4] = assay: Induction of apoptosis in human WM266.4 cells assessed as early apoptotic cells at 25 uM after 8 hrs by Annexin V-FITC/propidium iodide staining based flow cytometry (reference value: 2.64%); format: functional
[5] = Drug metabolism in human WM266.4 cells assessed as amonafide after 48 hrs by LC-MS analysis; format: ADME, cell-based; conditions: wm 266-4, 48 h
WM 266-4 [6] = assay: Induction of apoptosis in human WM266.4 cells assessed as live cells at 25 uM after 24 hrs by Annexin V-FITC/propidium iodide staining based flow cytometry (reference value: 94.7%); format: functional
WM 266-4 [7] = assay: Induction of apoptosis in human WM266.4 cells assessed as late apoptotic cells at 25 uM after 24 hrs by Annexin V-FITC/propidium iodide staining based flow cytometry (reference value: 1.41%); format: functional
[8] = Drug metabolism in human WM266.4 cells assessed as chlorambucil after 48 hrs by LC-MS analysis; format: ADME, cell-based; conditions: wm 266-4, 48 h
Mus musculus [9] = assay: Toxicity in athymic Foxn1 nu mouse assessed as effect on body weight at 10 mg/kg, ip administered once daily for 3 days followed by resting period of 4 days repeated for 4 weeks; format: organism-based; conditions: in vivo
WM 266-4 [10] = assay: Cell cycle arrest in human WM266.4 cells assessed as accumulation at S phase at 10 uM after 2 hrs by propidium iodide staining based flow cytometry (reference value: 27%); format: functional
WM 266-4 [11] = assay: Antitumor activity against human WM266.4 cells xenografted in athymic Foxn1 nu mouse assessed as tumor growth inhibition at 5 mg/kg, ip administered once daily for 7 days followed by resting period of 2 days repeated for 4 weeks starting from 5 days post tumor inoculation measured on day 21; format: functional, organism-based
PC-3 = assay: Growth inhibition of human PC3 cells preincubated for 6 hrs followed compound washout measured after 24 hrs by XTT assay; format: functional
WM 266-4 [12] = assay: Induction of apoptosis in human WM266.4 cells assessed as necrotic cells at 10 uM after 24 hrs by Annexin V-FITC/propidium iodide staining based flow cytometry (reference value: 1.22%); format: functional
WM 266-4 [13] = assay: Antitumor activity against human WM266.4 cells xenografted in athymic Foxn1 nu mouse assessed as tumor growth inhibition at 10 mg/kg, ip administered once daily for 7 days followed by resting period of 2 days repeated for 4 weeks starting from 5 days post tumor inoculation measured on day 21 relative to control; format: functional; conditions: WM 266-4, ip, read-out: TGI
WM 266-4 [14] = assay: Cell cycle arrest in human WM266.4 cells assessed as accumulation at G2 phase at 10 uM after 2 hrs by propidium iodide staining based flow cytometry (reference value: 11%); format: functional
WM 266-4 [15] = assay: Cell cycle arrest in human WM266.4 cells assessed as accumulation at G1 phase at 10 uM after 24 hrs by propidium iodide staining based flow cytometry (reference value: 59%); format: functional
WM 266-4 [16] = assay: Induction of apoptosis in human WM266.4 cells assessed as early apoptotic cells at 10 uM after 8 hrs by Annexin V-FITC/propidium iodide staining based flow cytometry (reference value: 2.64%); format: functional
WM 266-4 [17] = assay: Antitumor activity against human WM266.4 cells xenografted in athymic Foxn1 nu mouse assessed as tumor growth inhibition at 10 mg/kg, ip administered once daily for 3 days followed by resting period of 4 days repeated for 4 weeks starting from 5 days post tumor inoculation measured on day 21 relative to control; format: functional; conditions: WM 266-4, ip, read-out: TGI
WM 266-4 [18] = assay: Induction of apoptosis in human WM266.4 cells assessed as late apoptotic cells at 25 uM after 2 hrs by Annexin V-FITC/propidium iodide staining based flow cytometry (reference value: 1.41%); format: functional
WM 266-4 [19] = assay: Cell cycle arrest in human WM266.4 cells assessed as accumulation at S phase at 10 uM after 24 hrs by propidium iodide staining based flow cytometry (reference value: 27%); format: functional
WM 266-4 [20] = assay: Growth inhibition of human WM266.4 cells at 1 uM incubated up to 96 hrs by XTT assay; format: functional, cell-based
WM 266-4 [21] = assay: Antitumor activity against human WM266.4 cells xenografted in athymic Foxn1 nu mouse assessed as tumor growth inhibition at 25 mg/kg, ip administered once daily for 3 days followed by resting period of 4 days repeated for 4 weeks starting from 5 days post tumor inoculation measured on day 21 relative to control; format: functional; conditions: WM 266-4, ip, read-out: TGI
WM 266-4 [22] = assay: Antitumor activity against human WM266.4 cells xenografted in athymic Foxn1 nu mouse assessed as increase in 50% survival of mouse at 10 mg/kg, ip administered once daily for 7 days followed by resting period of 2 days repeated for 4 weeks starting from 5 days post tumor inoculation relative to control; format: functional
[23] = molecular target: DNA topoisomerase 2-alpha (Homo sapiens) (UniProt P11388); assay: Inhibition of human topoisomerase-2alpha assessed as reduction in enzyme-mediated decatenation at 25 uM using kinetoplast DNA as substrate after 25 mins by ethidium bromide staining based agarose gel electrophoresis method
WM 266-4 [24] = assay: Induction of apoptosis in human WM266.4 cells assessed as necrotic cells at 25 uM after 2 hrs by Annexin V-FITC/propidium iodide staining based flow cytometry (reference value: 1.22%); format: functional

Sequence of DNA topoisomerase 2-alpha (Homo sapiens) (P11388 whole entry): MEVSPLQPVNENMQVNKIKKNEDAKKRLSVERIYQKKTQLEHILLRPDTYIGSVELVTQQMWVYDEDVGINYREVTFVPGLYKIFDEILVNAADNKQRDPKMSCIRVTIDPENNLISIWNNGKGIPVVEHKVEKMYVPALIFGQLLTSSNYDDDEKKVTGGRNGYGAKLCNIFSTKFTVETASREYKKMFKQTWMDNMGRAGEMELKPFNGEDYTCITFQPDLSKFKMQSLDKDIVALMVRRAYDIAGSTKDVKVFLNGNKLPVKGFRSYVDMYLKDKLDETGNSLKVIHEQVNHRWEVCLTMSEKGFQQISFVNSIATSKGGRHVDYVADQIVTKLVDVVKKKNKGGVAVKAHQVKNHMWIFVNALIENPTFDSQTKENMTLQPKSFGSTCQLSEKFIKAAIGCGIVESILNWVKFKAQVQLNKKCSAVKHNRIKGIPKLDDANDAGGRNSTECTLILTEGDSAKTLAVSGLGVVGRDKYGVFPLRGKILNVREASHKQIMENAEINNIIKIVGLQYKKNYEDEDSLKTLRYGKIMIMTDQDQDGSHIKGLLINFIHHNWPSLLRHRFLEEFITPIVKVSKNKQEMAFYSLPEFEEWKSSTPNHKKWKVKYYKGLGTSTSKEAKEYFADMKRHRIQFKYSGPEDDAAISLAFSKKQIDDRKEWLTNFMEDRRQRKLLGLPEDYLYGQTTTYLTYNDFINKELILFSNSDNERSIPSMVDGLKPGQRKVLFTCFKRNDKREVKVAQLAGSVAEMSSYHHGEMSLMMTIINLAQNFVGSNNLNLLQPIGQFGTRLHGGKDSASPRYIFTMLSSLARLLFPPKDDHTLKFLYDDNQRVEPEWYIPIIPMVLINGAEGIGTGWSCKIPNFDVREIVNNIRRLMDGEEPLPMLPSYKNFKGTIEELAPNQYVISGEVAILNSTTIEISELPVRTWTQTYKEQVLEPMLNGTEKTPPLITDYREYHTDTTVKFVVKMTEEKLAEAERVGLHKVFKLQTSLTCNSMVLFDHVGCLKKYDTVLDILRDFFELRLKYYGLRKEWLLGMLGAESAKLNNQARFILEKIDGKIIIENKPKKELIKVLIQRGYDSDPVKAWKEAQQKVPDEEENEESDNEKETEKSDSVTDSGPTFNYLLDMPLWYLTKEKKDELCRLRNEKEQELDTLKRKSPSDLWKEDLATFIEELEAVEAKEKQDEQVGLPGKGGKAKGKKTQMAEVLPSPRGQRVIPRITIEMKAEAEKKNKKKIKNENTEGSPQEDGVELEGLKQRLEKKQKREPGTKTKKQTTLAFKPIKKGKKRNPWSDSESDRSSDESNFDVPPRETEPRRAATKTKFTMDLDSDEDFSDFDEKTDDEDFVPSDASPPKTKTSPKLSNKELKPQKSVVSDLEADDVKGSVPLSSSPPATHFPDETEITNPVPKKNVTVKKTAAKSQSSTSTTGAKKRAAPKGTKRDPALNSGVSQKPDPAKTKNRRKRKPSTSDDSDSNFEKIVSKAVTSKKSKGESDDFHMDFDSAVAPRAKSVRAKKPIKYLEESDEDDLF

CN(C)CCN1C(=O)c2cccc3cc(NC(=O)CCCc4ccc(N(CCCl)CCCl)cc4)cc(c23)C1=O.O=C(O)C(F)(F)F
half-life [1]: 25 h | Activity (WM 266-4 [2]): 6.79% | Activity (Mus musculus [3]): Non-Toxic | Activity (WM 266-4 [4]): 5.46% | Drug metabolism [5]: Metabolite_Notdetected | Activity (WM 266-4 [6]): 40% | Activity (WM 266-4 [7]): 19.8% | Drug metabolism [8]: Metabolite_Notdetected | Activity (Mus musculus [9]): Non-Toxic | Activity (WM 266-4 [10]): 45% | TGI (WM 266-4 [11]): inactive | GI50 (PC-3): 7.1 µM | Activity (WM 266-4 [12]): 10.3% | inhibition in vivo at 10 mg/kg (WM 266-4 [13]): 40% | Activity (WM 266-4 [14]): 15% | Activity (WM 266-4 [15]): 36% | Activity (WM 266-4 [16]): 6.66% | inhibition in vivo at 10 mg/kg (WM 266-4 [17]): 40% | Activity (WM 266-4 [18]): 3.94% | Activity (WM 266-4 [19]): 38% | growth inhibition (GI) (WM 266-4 [20]): inactive | inhibition in vivo at 25 mg/kg (WM 266-4 [21]): 46% | Activity (WM 266-4 [22]): 24% | inhibition [23]: Active | Activity (WM 266-4 [24]): 16.4%

From ChEMBL document CHEMBL4190267, “Discovery of potent molecular chimera (CM358) to treat human metastatic melanoma” (Eur J Med Chem, 2017)
